Common to all, as to format: cell-based
In assay [1] the test system is KIR2DS2-positive NK cells. Put plainly: CD107a degranulation of NK cells from KIR2DS2-positive donors cultured with peptide-loaded L721.174 cells. The method, then: A. cells were incubated in the presence or absence of peptides, and then cultured with NK cells from either a KIR2DS2-positive or KIR2DS2-negative donor. The level of CD107a (LAMP) expression was measured on NK cells positive for the CH-L antibody. This antibody binds to KIR2DS2, KIR2DL2 and KIR2DL3. B. Summary data from 5 KIR2DS2-positive and 6 KIR2DS2 • negative donors tested as per panel A of FIG. 2. To compare the different donors the data are normalized to 100% for the no peptide condition.
With reference to FIG. 2A, 3×10^5 L721.174 cells were incubated at 26° C. overnight in the presence or absence of peptides, and then cultured for four hours with NK cells from either a KIR2DS2-positive or KIR2DS2-negative donor. The level of CD107a (LAMP) expression was measured on NK cells positive for the CH-L antibody. This antibody binds to KIR2DS2, KIR2DL2 and KIR2DL3. […] With reference to FIG. 2B, summary data from 5 KIR2DS2-positive and 6 KIR2DS2 • negative donors were tested as per panel A of FIG. 2. To compare the different donors the data are normalized to 100% for the no peptide condition.

Assay [2] deals with KIR2DS2-positive NK cell clones. Put plainly: Cytotoxicity of NK cell clones against peptide-loaded L721.174 cells (Live/Dead stain). The settings on record: KIR2DS2-positive clones 4, 6, 9 only (not KIR2DS2-negative clone 27); compared to no peptide or VAPWNSFAL
As to the method: L721.174 cells were incubated in the presence or absence of the peptides VAPWNSFAL (SEQ ID NO: 12) and the LNPSVAATL (SEQ ID NO: 5). The cells were then labeled with the cell tracker orange dye, and then cultured with KIR2DS2-positive NK cell clones (clones 4,6,9) or a KIR2DS2-negative NK cell clone (clone 27). Cytotoxicity was then determined using Live/Dead® fixable far-red stain.
With reference to FIG. 3, 3×10^5 L721.174 cells were incubated at 26° C. overnight in the presence or absence of the peptides VAPWNSFAL (SEQ ID NO: 12) and the LNPSVAATL (SEQ ID NO: 5). The cells were then labeled with the cell tracker orange dye, and then cultured for four hours with KIR2DS2-positive NK cell clones (clones 4,6,9) or a KIR2DS2-negative NK cell clone (clone 27). Cytotoxicity was then determined using Live/Dead® fixable far-red stain.

In assay [3] the test system is NK cell line transfected with KIR2DS2. The assay is described as follows: DAP12 phosphorylation after KIR2DS2 immunoprecipitation (Western blot). The settings on record: L721.174 cells with peptide at a concentration of 2004, NK cell line with KIR2DS2 for 5 minutes. As to the method: A. L721.174 cells were incubated with indicated peptides. The cells were then incubated with the NK cell line transfected with KIR2DS2. The cells were lysed and the KIR2DS2 was then immunoprecipitated from the mixture using the GL183 antibody coupled to protein-G beads. The immune precipitate was analysed by Western blotting using a phosphotyrosine antibody. The membrane was then stripped and reprobed with an antibody to DAP12 the molecule that transduces a positive signal from KIR2DS2. Shown are the regions on the blots at the level of DAP12 (12-15 kDa). B. L721.174 cells were incubated with indicated peptides. The cells were then incubated with the NK cell line transfected with KIR2DS2 or transfected with KIR2DL2. The cells were lysed in 1% NP-40 and then analysed by Western blotting using antibodies to pVav1 and then following stripping of the membrane to Vav1. Shown are Western blots around the 98 kDa region, and below them the corresponding densitometries for 3 independent experiments.
With reference to FIG. 6A, 1×10^6 L721.174 cells were incubated overnight at 26° C. with indicated peptides at a concentration of 2004. […] The immune precipitate was analysed by Western blotting using a phosphotyrosine antibody. […] The cells were lysed in 1% NP-40 and then analysed by Western blotting using antibodies to pVav1 and then following stripping of the membrane to Vav1. […]

For the sequence “LNPSVAATL [peptide recognized by KIR2DS2-positive NK cells]”, the “level of CD107a (LAMP) degranulation” value in assay [1] (KIR2DS2-positive donor, CH-L antibody positive NK cells, four hours, compared to no peptide) is on record as “higher levels of degranulation”; in assay [1] (KIR2DS2-positive donors, in combination with VAPWNSFAL, compared to the VAPWNSFAL peptide alone) it was “higher levels of degranulation”. Besides, in assay [2], the “killing of L721.174 cell line” value was “killed the L721.174 cell line to greater extent”. Also, the “phosphorylation of DAP12” value in assay [3] was “induces phosphorylation of DAP12”.
